Converted amounts (≈) assume the structure as drawn.
Experiments:
Assay type in all cases: functional
Tetranychus urticae [1] = experiment: Resistance ratio of LC50 for bifenazate-resistant Tetranychus urticae BR-VL (two-spotted spider mite) harboring mitochondrial G126S, S141F and D161G Cytb mutation to LC50 for Tetranychus urticae GSS
Tetranychus urticae [2] = experiment: Synergism ratio of LC50 for adult Tetranychus urticae GSS (two-spotted spider mite) to LC50 for adult Tetranychus urticae GSS in presence of 1000 mg/L esterase inhibitor, DEF application
Tetranychus urticae [3] = experiment: Toxicity against adult Tetranychus urticae BEL1 (two-spotted spider mite) in bean leaves assessed as mortality treated 24 hr after 2000 mg/L cytochrome P450 monoxygenase inhibitor, PBO application; conditions: BEL-1, 24 h
Tetranychus urticae [4] = experiment: Toxicity against adult bifenazate-resistant Tetranychus urticae BEL1 (two-spotted spider mite) harboring mitochondrial P262T Cytb fixed mutation in compound pretreated bean leaves assessed as mortality; conditions: BEL-1
Tetranychus urticae [5] = experiment: Synergism ratio of LC50 for adult Tetranychus urticae BEL-1 (two-spotted spider mite) to LC50 for adult Tetranychus urticae BEL-1 in presence of 2000 mg/L GST inhibitor, DEM application
Tetranychus urticae [6] = experiment: Resistance ratio of LC50 for Tetranychus urticae HOL2 (two-spotted spider mite) harboring mitochondrial G126S Cytb mutation to LC50 for Tetranychus urticae GSS
Tetranychus urticae [7] = experiment: Toxicity against adult Tetranychus urticae BR-VL (two-spotted spider mite) in bean leaves assessed as mortality treated 24 hr after 2000 mg/L GST inhibitor, DEM application
Tetranychus urticae [8] = experiment: Toxicity against adult Tetranychus urticae GSS (two-spotted spider mite) in compound pretreated bean leaves assessed as mortality
Tetranychus urticae [9] = experiment: Synergism ratio of LC50 for adult Tetranychus urticae BR-VL (two-spotted spider mite) to LC50 for adult Tetranychus urticae BR-VL in presence of 2000 mg/L cytochrome P450 monoxygenase inhibitor, PBO
Tetranychus urticae [10] = experiment: Resistance ratio of LC50 for bifenazate-resistant Tetranychus urticae (two-spotted spider mite) BEL1 harboring mitochondrial P262T Cytb fixed mutation to LC50 for Tetranychus urticae GSS
Tetranychus urticae [11] = experiment: Synergism ratio of LC50 for adult Tetranychus urticae GSS (two-spotted spider mite) to LC50 for adult Tetranychus urticae GSS in presence of 2000 mg/L cytochrome P450 monoxygenase inhibitor, PBO
Tetranychus urticae [12] = experiment: Synergism ratio of LC50 for adult Tetranychus urticae BEL-1 (two-spotted spider mite) to LC50 for adult Tetranychus urticae BEL-1 in presence of 2000 mg/L esterase inhibitor, DEF application
Tetranychus urticae [13] = experiment: Toxicity against adult Tetranychus urticae BR-VL (two-spotted spider mite) in bean leaves assessed as mortality treated 24 hr after 2000 mg/L cytochrome P450 monoxygenase inhibitor, PBO application
Tetranychus urticae [14] = experiment: Toxicity against adult Tetranychus urticae BEL1 (two-spotted spider mite) in bean leaves assessed as mortality treated 24 hr after 2000 mg/L GST inhibitor, DEM application; conditions: BEL-1, 24 h
Tetranychus urticae [15] = experiment: Resistance ratio of LC50 for Tetranychus urticae HOL1 (two-spotted spider mite) harboring mitochondrial G126S and I136T Cytb mutation to LC50 for Tetranychus urticae GSS
Tetranychus urticae [16] = experiment: Resistance ratio of LC50 for Tetranychus urticae HOL3 (two-spotted spider mite) harboring mitochondrial P262T Cytb heteroplasmic mutation to LC50 for Tetranychus urticae GSS
Tetranychus urticae [17] = experiment: Synergism ratio of LC50 for adult Tetranychus urticae BEL-1 (two-spotted spider mite) to LC50 for adult Tetranychus urticae BEL-1 in presence of 2000 mg/L cytochrome P450 monoxygenase inhibitor, PBO
Tetranychus urticae [18] = experiment: Toxicity against adult bifenazate-resistant Tetranychus urticae BR-VL (two-spotted spider mite) harboring mitochondrial G126S, S141F and D161G Cytb mutation in compound pretreated bean leaves assessed as mortality
Tetranychus urticae [19] = experiment: Toxicity against female adult Tetranychus urticae (two-spotted spider mite) F1 progeny generated from reciprocal cross between female GSS and male BEL1 in compound pretreated bean leaves assesed as mortality
Tetranychus urticae [20] = experiment: Resistance ratio of LC50 for bifenazate-susceptible Tetranychus urticae LS-VL (two-spotted spider mite) to LC50 for Tetranychus urticae GSS
Tetranychus urticae [21] = experiment: Toxicity against adult Tetranychus urticae MR-VL (two-spotted spider mite) in compound pretreated bean leaves assessed as mortality
Tetranychus urticae [22] = experiment: Toxicity against adult Tetranychus urticae WI (two-spotted spider mite) in compound pretreated bean leaves assessed as mortality
Tetranychus urticae [23] = experiment: Toxicity against female adult Tetranychus urticae (two-spotted spider mite) F1 progeny generated from reciprocal cross between female BR-VL and male GSS in compound pretreated bean leaves assesed as mortality
Tetranychus urticae [24] = experiment: Synergism ratio of LC50 for adult Tetranychus urticae BR-VL (two-spotted spider mite) to LC50 for adult Tetranychus urticae BR-VL in presence of 2000 mg/L GST inhibitor, DEM application
Tetranychus urticae [25] = experiment: Toxicity against adult bifenazate-susceptible Tetranychus urticae LS-VL (two-spotted spider mite) in compound pretreated bean leaves assessed as mortality
Tetranychus urticae [26] = experiment: Toxicity against adult Tetranychus urticae BR-VL (two-spotted spider mite) in bean leaves assessed as mortality treated 24 hr after 2000 mg/L esterase inhibitor, DEF application
Tetranychus urticae [27] = experiment: Toxicity against adult Tetranychus urticae HOL3 (two-spotted spider mite) harboring mitochondrial P262T Cytb heteroplasmic mutation in compound pretreated bean leaves assessed as mortality
Tetranychus urticae [28] = experiment: Toxicity against adult Tetranychus urticae HOL2 (two-spotted spider mite) harboring mitochondrial G126S Cytb mutation in compound pretreated bean leaves assessed as mortality
Tetranychus urticae [29] = experiment: Toxicity against adult Tetranychus urticae GSS (two-spotted spider mite) in bean leaves assessed as mortality treated 24 hr after 2000 mg/L GST inhibitor, DEM application
Tetranychus urticae [30] = experiment: Toxicity against adult METI-resistant Tetranychus urticae MR-VP (two-spotted spider mite) in compound pretreated bean leaves assessed as mortality
Tetranychus urticae [31] = experiment: Toxicity against adult Tetranychus urticae HOL4 (two-spotted spider mite) harboring mitochondrial G126S Cytb mutation in compound pretreated bean leaves assessed as mortality
Tetranychus urticae [32] = experiment: Resistance ratio of LC50 for Tetranychus urticae WI (two-spotted spider mite) to LC50 for Tetranychus urticae GSS
Tetranychus urticae [33] = experiment: Resistance ratio of LC50 for Tetranychus urticae (two-spotted spider mite) HOL4 harboring mitochondrial G126S Cytb mutation to LC50 for Tetranychus urticae GSS
Tetranychus urticae [34] = experiment: Resistance ratio of LC50 for METI-resistant Tetranychus urticae MR-VP (two-spotted spider mite) to LC50 for Tetranychus urticae GSS
Tetranychus urticae [35] = experiment: Synergism ratio of LC50 for adult Tetranychus urticae GSS (two-spotted spider mite) to LC50 for adult Tetranychus urticae GSS in presence of 2000 mg/L GST inhibitor, DEM application
Tetranychus urticae [36] = experiment: Toxicity against adult Tetranychus urticae GSS (two-spotted spider mite) in bean leaves assessed as mortality treated 24 hr after 1000 mg/L esterase inhibitor, DEF application
Tetranychus urticae [37] = experiment: Toxicity against adult Tetranychus urticae GSS (two-spotted spider mite) in bean leaves assessed as mortality treated 24 hr after 2000 mg/L cytochrome P450 monoxygenase inhibitor, PBO application
Tetranychus urticae [38] = experiment: Synergism ratio of LC50 for adult Tetranychus urticae BR-VL (two-spotted spider mite) to LC50 for adult Tetranychus urticae BR-VL in presence of 2000 mg/L esterase inhibitor, DEF application
Tetranychus urticae [39] = experiment: Toxicity against female adult Tetranychus urticae (two-spotted spider mite) F1 progeny generated from reciprocal cross between female BEL1 and male GSS in compound pretreated bean leaves assesed as mortality
Tetranychus urticae [40] = experiment: Toxicity against female adult Tetranychus urticae (two-spotted spider mite) F1 progeny generated from reciprocal cross between female GSS and male BR-VL in compound pretreated bean leaves assesed as mortality
Tetranychus urticae [41] = experiment: Toxicity against adult Tetranychus urticae HOL1 (two-spotted spider mite) harboring mitochondrial G126S and I136T Cytb mutation in compound pretreated bean leaves assessed as mortality
Tetranychus urticae [42] = experiment: Resistance ratio of LC50 for Tetranychus urticae MR-VL (two-spotted spider mite) to LC50 for Tetranychus urticae GSS
Tetranychus urticae [43] = experiment: Toxicity against adult Tetranychus urticae BEL1 (two-spotted spider mite) in bean leaves assessed as mortality treated 24 hr after 2000 mg/L esterase inhibitor, DEF application; conditions: BEL-1, 24 h

CCCCCCCCCCCCC1=C(OC(C)=O)C(=O)c2ccccc2C1=O [ACEQUINOCYL]
RatioLC50 (Tetranychus urticae [1]): 105 | RatioLC50 (Tetranychus urticae [2]): 1.1 | LC50 (Tetranychus urticae [3]): 79.4 µg/mL (≈ 206 µM) | LC50 (Tetranychus urticae [4]): 548 µg/mL (≈ 1430 µM) | RatioLC50 (Tetranychus urticae [5]): 1.1 | RatioLC50 (Tetranychus urticae [6]): 1 | LC50 (Tetranychus urticae [7]): 782 µg/mL (≈ 2030 µM) | LC50 (Tetranychus urticae [8]): 11.3 µg/mL (≈ 29.4 µM) | RatioLC50 (Tetranychus urticae [9]): 5.6 | RatioLC50 (Tetranychus urticae [10]): 48.5 | RatioLC50 (Tetranychus urticae [11]): 2.26 | RatioLC50 (Tetranychus urticae [12]): 1.2 | LC50 (Tetranychus urticae [13]): 209 µg/mL (≈ 544 µM) | LC50 (Tetranychus urticae [14]): 484 µg/mL (≈ 1260 µM) | RatioLC50 (Tetranychus urticae [15]): 0.8 | RatioLC50 (Tetranychus urticae [16]): 11.1 | RatioLC50 (Tetranychus urticae [17]): 6.9 | LC50 (Tetranychus urticae [18]): 1180 µg/mL (≈ 3070 µM) | LC50 (Tetranychus urticae [19]): 26.2 µg/mL (≈ 68.1 µM) | RatioLC50 (Tetranychus urticae [20]): 0.9 | LC50 (Tetranychus urticae [21]): 15.8 µg/mL (≈ 41.1 µM) | LC50 (Tetranychus urticae [22]): 26.5 µg/mL (≈ 68.9 µM) | LC50 (Tetranychus urticae [23]): 1200 µg/mL (≈ 3120 µM) | RatioLC50 (Tetranychus urticae [24]): 1.5 | LC50 (Tetranychus urticae [25]): 10.7 µg/mL (≈ 27.8 µM) | LC50 (Tetranychus urticae [26]): 1060 µg/mL (≈ 2760 µM) | LC50 (Tetranychus urticae [27]): 126 µg/mL (≈ 328 µM) | LC50 (Tetranychus urticae [28]): 11.2 µg/mL (≈ 29.1 µM) | LC50 (Tetranychus urticae [29]): 8.3 µg/mL (≈ 21.6 µM) | LC50 (Tetranychus urticae [30]): 30.5 µg/mL (≈ 79.3 µM) | LC50 (Tetranychus urticae [31]): 10.2 µg/mL (≈ 26.5 µM) | RatioLC50 (Tetranychus urticae [32]): 2.3 | RatioLC50 (Tetranychus urticae [33]): 0.9 | RatioLC50 (Tetranychus urticae [34]): 2.7 | RatioLC50 (Tetranychus urticae [35]): 1.4 | LC50 (Tetranychus urticae [36]): 9.9 µg/mL (≈ 25.7 µM) | LC50 (Tetranychus urticae [37]): 5 µg/mL (≈ 13 µM) | RatioLC50 (Tetranychus urticae [38]): 1.1 | LC50 (Tetranychus urticae [39]): 535 µg/mL (≈ 1390 µM) | LC50 (Tetranychus urticae [40]): 22.3 µg/mL (≈ 58 µM) | LC50 (Tetranychus urticae [41]): 9.4 µg/mL (≈ 24.4 µM) | RatioLC50 (Tetranychus urticae [42]): 1.4 | LC50 (Tetranychus urticae [43]): 450 µg/mL (≈ 1170 µM)
